Data: patent US11149016B2, “S-substituted-2-amino-3-mercaptopropionate derivative, preparation method and application thereof” (JIANGSU TASLY DIYI PHARMACEUTICAL CO., LTD., priority 2016, dated 2021)

Test system: mice with memory disorders caused by scopolamine
Experiment: Passive avoidance (darkroom) test in mice with scopolamine-injured memory
Assay type: in vivo, ICR mice
Settings: for Activity compared with SPRC (in words) / Effect on error times of mice with memory impairment entering the darkroom (in words) / Effect on latency of mice with memory impairment entering the darkroom (in words): passive avoidance test, scopolamine model; for Latency (s) of entering the darkroom / Error times (number of times entering the darkroom within 3 minutes): intragastric, 7 days, scopolamine 3 mg/kg 20 minutes before testing, x ± s, n = 10
Source text: Memory functions of mice are injured by scopolamine, and effects of improvement of tested materials on the memory functions of the mice are observed.
Animals: ICR mice, male, 20-22 g, purchased from Institute for Experimental Animals in Chinese Academy of Medical Sciences, certification number: SCXK (JING) 2014-0004.
Agent: scopolamine (J&K Company), donepezil reagent (TCI Company).
Tested materials: 4 tested materials and a positive-drug donepezil are provided by Tasly Group. Dosage of administration: administered by tested materials according to 80 mg/kg weight, administered by donepezil according to 5 mg/kg weight, an administration volume of 2 ml.
purchasing 60 mice, and enabling the mice to adapt to an environment for three days; dividing the mice into 6 groups randomly, wherein a blank control group includes 10 mice, the rest mice are contained in administration groups, and each administration group includes 10 mice; respectively administering the tested materials and positive drug, performing intragastric administration for 7 days, putting the mice into a darkroom to adapt to the environment on the fifth day during administration, electrifying the darkroom on the sixth day during administration, training the mice to elude the darkroom, and training each mouse once; testing on the seventh day, administering with scopolamine by 3 mg/kg within 20 minutes before testing, and recording time of the mice entering the darkroom for the first time and a number of times of the mice entering the darkroom within 3 minutes during testing.
Passive avoidance response is a common method used commonly to detect learning and memory functions of small animals. With respect to a passive avoidance test, by means of a feature that rodents like darkness and keep in a dark place, the rodents are stimulated in the dark to escape to a bright place to acquire memory, and the passive avoidance test is a type of passive avoidance response experiments. The passive avoidance test has a short experimental period and is applicable to rapid drug screening. The scopolamine may inhibit release of acetyl choline, so as to form learning and memory disorders. The passive avoidance test is a stable learning and memory disorder modeling method and has excellent model reproducibility.

[1] = tested materials 80 mg/kg, time of first entry into darkroom
[2] = positive drug donepezil 5 mg/kg

Structure (SMILES) | Activity compared with SPRC (in words) | Effect on error times of mice with memory impairment entering the darkroom (in words) | Effect on latency of mice with memory impairment entering the darkroom (in words) | Latency (s) of entering the darkroom [1] [s] | Error times (number of times entering the darkroom within 3 minutes) (tested materials 80 mg/kg) | Error times (number of times entering the darkroom within 3 minutes) [2] | Latency (s) of entering the darkroom [2] [s]
C#CCSCC(N)C(=O)OCc1ccc(OC(=O)C(N)CSCC#C)cc1 (centres unmarked) [Vd, bis(2-amino-3-propinylmercaptopropionic acid)-4-benzyl alcohol-1-phenol diester] | obviously better than the activity of the SPRC | trend of decreasing the error times | trend of increasing the latency | 63.6 ± 69.5 | 2.6 ± 3.3 |  | 
C#CCSCC(N)C(=O)OCCCC[N+](=O)[O-] (centres unmarked) [Vf, 2-amino-3-propinylmercaptopropionic acid-4-nitro-1-butanol ester] | obviously better than the activity of the SPRC | trend of decreasing the error times | trend of increasing the latency | 60.2 ± 61.3 | 2.4 ± 2.3 |  | 
C#CCSC[C@H](N)C(=O)O [SPRC, S-propargyl-cysteine, reference compound] |  |  |  | 50.5 ± 69.7 | 3.8 ± 4.0 |  | 
C#CCSCC(N)C(=O)Oc1ccc(-c2cc(=S)ss2)cc1 (centres unmarked) [Va, 2-amino-3-propinylmercaptopropionic acid-4-(3-thio-3H-1,2-dithio-5-alkenyl) phenol ester] |  |  |  | 55.8 ± 61.3 | 4.7 ± 4.6 |  | 
C#CCSCC(N)C(=O)Oc1ccc(C=O)cc1 (centres unmarked) [Vb, 2-amino-3-propinylmercaptopropionic acid-4-formyl phenol ester] |  |  |  | 53.2 ± 59.4 | 4.1 ± 3.7 |  | 
C#CCSCC(N)C(=O)Oc1ccc(CO)cc1 (centres unmarked) [Vc, 2-amino-3-propinylmercaptopropionic acid-4-benzyl alcohol phenol ester] | obviously better than the activity of the SPRC | trend of decreasing the error times | trend of increasing the latency | 66.8 ± 57.1 | 2.4 ± 1.3 |  | 
COc1cc2c(cc1OC)C(=O)C(CC1CCN(Cc3ccccc3)CC1)C2 (centres unmarked) [Donepezil, donepezil, reference compound] |  |  |  |  |  | 6.8 ± 5.4 | 49.5 ± 71.6
